Here are results for five substances from article PMC9714824, “Hexapeptides from mammalian inhibitory hormone hunt activate and inactivate nematode reproduction” (PLOS ONE, 2022).

Assay [1] relates to Caenorhabditis elegans. The conditions noted are these: cited from earlier work. From the text: As a control compound there was synthesized EPL030, having the aa sequence KLKMNGKNIEPVFT. This is a scrambling of EPL001’s sequence, based on cards drawn at random by one of us (CRM). […] The figures for fecundity were EPL001 +43 ... || Returning to EPL030, the scrambled-sequence EPL001 comparator, this has engendered perplexity by displaying the same activity as EPL001 across multiple mammalian systems. Thus, EPL030 suppressed human prostate cancer cells in vitro more than EPL001 in two laboratories and the proliferation of rat bone marrow cells in vitro in a third.

In assay [2] the test system is Steinernema siamkayai. Kind of assay: Nematode pilot study fecundity (S3 Table 1). The class given is in vivo. The conditions noted are these: inoculum 5 IJs. An excerpt: (§1) The attempt was made here to replicate prior fecundity work in another species of nematode, the entomopathogenic (insect slaying) Steinernema siamkayai. Species confirmation involved standard morphological and molecular techniques (S3 File, Nematodes). S. siamkayai is a biocontrol agent of potential economic significance in global agriculture, reducing the need for pesticides. Crucial for deployment is the production of ‘infective juveniles’. These forms penetrate the larvae of insect pests, releasing a bacterium, Xenorhabdus spp., which ultimately kills the larvae. Stock solutions (5 mg mL^-1) of EPL036 (IEPVFT) and EPL630 (KLKMNG) were made up and stored at −20 °C. Lipid Agar plates were prepared by pouring 5 ml media in 60 mm plastic Petri dishes. The plates were inoculated with an overnight-grown bacterial culture of Xenorhabdus spp. (10^9 cfu/ml) at 100 μl/plate and incubated at 28 °C for 24h. Xenorhabdus bacteria are symbiotically associated with S. siamkayai. While multiplying, Xenorhabdus metabolises the constituents of the lipid agar and the resulting by-products are the food supplement for the nematodes that triggers the worms to grow and multiply. From the stock solutions, peptides were introduced individually into the centre of the Lipid Agar plates with Xenorhabdus lawn. Two concentrations of peptide were used, 4 and 8 μL of the 5 mg mL^-1 stock peptide solutions (making 20 and 40 μg of peptide per plate in total, respectively, i.e. ~6 and ~12 μM). Each peptide solution was uniformly spread using an L shaped spreader and allowed to absorb into the agar plate for 10 minutes. Nematodes were harvested beforehand as follows. Third-stage infective juveniles (IJs) of S. siamkayai were used to infect fourth instar Galleria larvae. Following larval death, the Galleria cadavers were placed on a White’s Trap to harvest fresh progeny within 5–6 days. After storage in sterile water, these new-generation IJs were concentrated and inoculated on the bacterial plates on Day 1 at 500 and 1000 IJs /plate. The eight treatments (two inocula at two peptide concentrations) and two controls (two inocula without peptides) were replicated (x3) and incubated at 28 °C. Observations of behaviour and morphology were made at intervals throughout the study, then on Day 5 (i.e. after 4 units of 24h) the nematodes were harvested. Two ml of distilled water was poured on each Petri dish and gently stirred to release the nematodes from the surface. The surface washings containing suspended nematodes were collected in a standard volume of 20 ml of distilled water. The number of mature adults (male and female) and the second-generation juveniles (J1, J2, J3 and pre-adults) were counted using a dissecting microscope (x10 magnification, 4 fields) in 0.05 ml subsamples (x3) and multiplied up to the standard volume of 20 ml.
Mean number of A) Infective juveniles and B) Adults following inoculation of Petri dishes treated with EPL036 and EPL630 at 4 µL and 8 µL and an untreated control; Petri dishes were initially inoculated with 5 infective juveniles of Steinernema siamkayai following the method used in the main manuscript (Single way ANOVA presented beneath each data set).

For assay [3], the system named is Steinernema siamkayai. Kind of assay: Steinernema siamkayai reproduction and development on lipid agar plates with hexapeptides. The class given is in vivo. Also noted: key to Infective juveniles / Adults: counts per plate, scaled from 0.05 ml subsamples to 20 ml. The conditions noted are these: for Infective juveniles / Adults: S3 Table 2.
From the text: as §1
Fig 2 Developmental impact on Steinernema siamkayai of hexapeptides after 4 days. INOCULUM = founding population of infective juveniles (IJs). ‘Infective juveniles’ on the vertical axis are mostly second-generation IJs. Peptides applied at the start of the study were EPL036 = IEPVFT, […] = KLKMNG. Total = Adults + Infective juveniles. Data are mean +/- SEM (average of 3 replicates). Statistical analysis: ANOVA. Control bars are doubly represented for ease of comparison. Note different vertical axes. […]

In assay [4] the test system is rat bone marrow cells. Briefly: Bone marrow cell assay, time-lapse cell counts over 24h. Format: cell-based. The procedure: The method has been described previously at length. Bone marrow cells, consisting of various cell types including mesenchymal stem cells and fibroblasts, were cultured from adult male rats (Rattus norvegicus, SD strain). These cells were passaged from a growing primary stock in a T75 tissue culture flask (Sarstedt) into a 48 well tissue culture plate (IWAKI), with a cell density of 1 x 10^5/ml. The cell culture media, henceforth referred to as ‘supplemented a-MEMS,’ comprised α-MEMS media supplemented with 10% FCS and 1% penicillin/streptomycin (all Life Technologies, Carlsbad, CA, US). On the day of peptide addition to the cells, the supplemented α-MEMS was gently removed and fresh supplemented α-MEMS added, with 10% test material by volume to achieve micromolar concentrations, untreated controls receiving just fresh supplemented α-MEMS. (For dose levels see legends in respective result figures) All samples were filter sterilised using a Millex-GV […] syringe filter unit (Merck, Kenilworth, NJ, USA). The cells were imaged for 24 h using an incubated Zeiss Axiovert 135M microscope with a Prior Proscan II motorised stage, at 37 °C with a 5% CO2 in air feed. Each well of the 48-well tissue culture plate was then imaged for 24h every 5 min using Metamorph software (MDS Analytical Technologies, Wokingham, UK), with each well having four fields of view. The viability and cell numbers were reviewed by analysing the images captured over the 24h period and cell counts were taken at selected time points using the Metamorph software.
Fig 6 Bone marrow cells in culture exposed to long peptides. Cells were counted over 24h after exposure to the 14mer peptide EPL001 or its scrambled-sequence control EPL030 at 6μM final concentration or to the 20mer EPL120 at 5μM final concentration, compared to peptide-untreated controls.
Fig 7 Bone marrow cells in culture exposed to hexapeptides. Cells were counted over 24h after exposure to either EPL016 (= MKPLTG, the ‘Front 6’ of the 14mer EPL001) or EPL036 (= IEPVFT, the ‘Back 6’ of EPL030, the scrambled-sequence control of EPL001) at 1μM final concentration, compared to peptide-untreated controls.

The test system of assay [5] is PNT2 cells. Briefly: MTS colorimetric viable cell assay, PNT2. The class given is cell-based, human. The conditions noted are these: 30 μM, 27h, 492 nm, triplicate. The method, then: (§2) Assays involving a range of peptides from 14mer down to 6mers assessed total viable PC3 or PNT2 cells using a 96-well plate MTS colorimetric assay (CellTiter 96 Aqueous One Solution Cell Proliferation Assay, Promega, Southampton, UK), with absorbance measured at 492 nm. Cells were seeded at 8,000 per well and grown for 27h. Peptides were administered at the outset to a final concentration of 30 μM (in 2 μl) to samples in triplicate. (A higher dosage was used than in the 14mer peptides study to shorten the timecourse of response.) Controls received buffer. Data are OD mean +/ − SEM, with statistical analysis by two tailed t-test. A time course study of the 14mers on PC3s, using the same technique, involved measurements at 24h and 48h.
(§3) Fig 5 Effects of a range of peptides on human prostate cancer cell growth in vitro. Assays involved a range of peptides from 14mers down to 6mers (Table 1), with viable cells assessed using a 96-well plate MTS colorimetric assay. Absorbance measured at 492 nm. Cells were seeded at 8,000 per well and grown for 27h. Peptides were administered at the outset to a final concentration of 30 μM (in 2 μl) to samples in triplicate. Controls received buffer. Data are OD mean +/- SEM, with statistical analysis by two tailed t-test. * p<0.05; **p<0.025.

The subject of assay [6] is PC3 cells. Briefly: MTS colorimetric viable cell assay, PC3. Format: cell-based, human. The following applies: for Difference in percentage terms between control and test OD means: PC3, 30 μM, 27h, MTS, 492 nm, triplicate. The procedure:
as §2, §3

Assay [7] concerns DU145 cells. Briefly: MTS viable cell assay, DU145 (Epistem). Format: cell-based, human. The following applies: DU145, 72h. The procedure: Further assays on human prostate cancer cells were conducted at a contract research organisation (Epistem, Manchester, UK). LNCaP or DU145 cells seeded at 3,000 cells/well across a 96-well plate were cultured in RPMI (phenol red free), 10% FCS, 1% sodium pyruvate, Pen/strep and L-glutamine for 24h before exposure to peptides, at a single dose level in the case of LNCaPs or multiple dose levels in the case of DU145s. (For dose levels see Results.) Controls received vehicle (1% PBS). For the DU145s peptide administration was repeated after 24h. 72h after the first administration (DU145s) or only administration (LNCaP) total viable cell numbers were measured colorimetrically (MTS) using a CellTiter 96 AQueous One Solution Cell Proliferation Assay (Promega, Southampton, UK), following manufacturer’s instructions. Briefly, the media on the plates was replaced with the CellTiter reagent diluted 1:5 in DMEM. The plates were returned to the incubator for 3 hours before reading absorbance at 492 nm on a FLUORstar OPTIMA (BMG Labtech). CellTiter data are the absorbance minus background values (CellTiter plus DMEM), expressed as (OD mean +/− SEM). Statistical analysis was by ANOVA, Dunnett’s multiple comparisons test.
Background: Tetrazolium dyes change colour on reduction, which living cells bring about.

Where [8] appears, read: 4 µL, inoculum 1000, mean of 3 reps.
Setting [9] is: 8 µL, inoculum 1000, mean of 3 reps.

Bounds are passed on as bounds.

Turning to IEPVFT [EPL036, IEPVFT, EPL030 Back 6], the “Increase in cumulative offspring vs untreated controls” value in assay [1] is “+79%”. Moreover, the Adults in assay [2] (4 µL, mean of 9 reps) is listed as 1.7; in assay [2] (4 µL, rep 1), 1; in assay [2] (4 µL, rep 2), 1; in assay [2] (4 µL, rep 3), 2; in assay [2] (4 µL, rep 4), 1; in assay [2] (4 µL, rep 5), 2. Further, the Adults in assay [2] (4 µL, rep 6) amounted to 2; in assay [2] (4 µL, rep 7), 2; in assay [2] (4 µL, rep 8) it was 2; in assay [2] (4 µL, rep 9), 2; in assay [2] (8 µL, mean of 9 reps), 0; in assay [2] (8 µL, rep 1), 0. For the same substance, the Adults turned out to be 0 in assay [2] (8 µL, rep 2); 0 in assay [2] (8 µL, rep 3); 0 in assay [2] (8 µL, rep 4); 0 in assay [2] (8 µL, rep 5); 0 in assay [2] (8 µL, rep 6); 0 in assay [2] (8 µL, rep 7). In addition, the Adults came out at 0 in assay [2] (8 µL, rep 8); 0 in assay [2] (8 µL, rep 9); 446 in assay [3] (setting [8]); 10 in assay [3] (setting [9]). The Infective juveniles in assay [2] (4 µL, mean of 9 reps) worked out at 43.2; in assay [2] (8 µL, mean of 9 reps), 75.8; in assay [3] (4 µL, inoculum 500, mean of 3 reps), 7482; in assay [3] (setting [8]) it was 13686; in assay [3] (8 µL, inoculum 500, mean of 3 reps) it was 9644; in assay [3] (setting [9]) it was 19161. Moreover, the Infective juveniles in assay [3] (8 µL, inoculum 1000, rep 1) was determined as 19141; in assay [3] (8 µL, inoculum 1000, rep 2), 19149; in assay [3] (8 µL, inoculum 1000, rep 3), 19193. Moreover, the “Egg production in females” value in assay [3] (compared with untreated controls, 48h exposure (Fig 3)) was “visibly bloated with eggs”. In assay [3] (observational), the “Time after incubation to fully grown males and females” value is given as 36 h. Moreover, the “Time for infective juveniles to transform into pre-adults” value in assay [3] (observational) is at most 24 h. The “Effect on bone marrow cells in culture” value in assay [4] (1μM final concentration, in words (Fig 7)) is listed as “cytostatic”.
Turning to MKPLTG [EPL016, MKPLTG, EPL001 Front 6], the “Increase in cumulative offspring vs untreated controls” value in assay [1] is given as 50%. Also, the “Reduction of the population of rat bone marrow cells” value in assay [4] (1μM in the medium, controls increased by about the same percentage) was found to be 18%.
On to “MLKTGEKPNFKNNI [EPL141, Human version of EPL143, with sheep V replaced by human N9]”, for which the “Difference in percentage terms between control and test OD means” value in assay [5] was −27.9%; in assay [6], −22.6%. For the same substance, in assay [6] (PC3 time course study, 24h), the “Mean OD as % of the EPL001 mean” value is listed as 56%.
On to “MLKTGEKPV [EPL901, first 9 aa of EPL143, from sSgII’s second sorting domain]”, for which the figures for the “Difference in percentage terms between control and test OD means” value in assay [5] and in assay [6] were −28.9% and −21.2%, respectively.
For the substance “MLKTGEKPVFKNNI [EPL143, Contiguous form of sSgII-14, an anagram of EPL001; benchmark for chi-squared test]”, the results for the “Test mean OD vs control mean” value in assay [7] (0.15 μM) and in assay [7] (150 μM (highest concentration)) were −4.3% and −18.7%, respectively. Also, the “Difference in percentage terms between control and test OD means” value in assay [5] was −20.6%; in assay [6] it was −10.2%.
